Reference: patent US20260027068A1, “METHODS OF ADM[…]-KETAMINE” (Perception Neuroscience, Inc., priority 2022, published 2026)

How the values were obtained:
[1] = Phase 1 single ascending dose plasma pharmacokinetics of 40-minute IV infusion of R(−)-ketamine and its metabolites; settings: for Tmax: all dose levels 5 mg to 150 mg; for AUC(0-inf) / Cmax / AUC(0-t): iv
Protocol: This was a Phase 1 randomized, placebo-controlled, double-blind, single dose study conducted at one center. […] The pharmacokinetic (PK) population was 36 subjects, with 12 additional subjects receiving placebo. […] Subjects were male or female healthy subjects, 18 to 65 years of age. […] Cohort 1 was dosed at 5 mg, followed by Cohort 2 at 15 mg, Cohort 3 at 30 mg, Cohort 4 at 60 mg, Cohort 5 at 100 mg, and Cohort 6 at 150 mg R(−)-ketamine. […] In addition to the safety and tolerability data, the study also evaluated the dose-related PK of each 40-minute IV infusion of R(−)-ketamine.
To evaluate the pharmacokinetics of R(−)-ketamine, blood was drawn from subjects for PK analysis at the following sampling times: pre-dose (−30 minutes); and from the start of infusion (5, 10, and 15 minutes [±1 minute], 30 minutes [±5 minutes], 40 minutes [immediately prior to infusion completion], 1, 1.5, 2, and 3 hours [±5 minutes], 4 and 8 hours [±10 minutes], 12 and 24 hours [±15 minutes]).
Plasma PK parameters of R(−)-ketamine and its metabolites (norketamine, 6-hydroxynorketamine, and dehydronorketamine) evaluated on include the following: • Maximum plasma concentration (Cmax), • Time to Cmax (Tmax), • Area under the plasma concentration curve (AUC0-t, AUC0-∞) • Elimination rate constant (λz), • Half-live (t½) • Clearance (CL, P R(−)-ketamine only), • Volume of distribution (Vz, R(−)-ketamine only), and • Metabolite to parent ratios (area under curve [AUC] and Cmax).
The dose proportionality was assessed both visually and statistically using calculated Cmax and AUC values. […] Continuous variables: Descriptive statistics included the number of non-missing values (n), arithmetic mean, standard deviation (SD), median, minimum, and maximum values. […] For PK concentration data, the number of non-missing values, number of below limit of quantification (BLQ) values, arithmetic mean, SD, median, minimum, maximum, coefficient of variation (CV %), geometric mean, and geometric CV (geo CV %) values are presented. For PK parameter data, the number of non-missing values, arithmetic mean, SD, median, minimum, maximum, CV %, geometric mean, and geometric CV (geo CV %) values are presented.
Intravenous administration of allocated blinded study drug (Morning, Day 1) was infused over 40 minutes. Blood collection for plasma PK analysis occurred at infusion 5, 10, 15, 30, 40, 60, and 90 minutes, and 2, 3, 4, 8, and 12 hours after the start of infusion.
Plasma concentrations of R(−)-ketamine and its metabolites norketamine, 6-hydroxynorketamine, and dehydronorketamine were determined using a suitable validated analytical method with a lower limit of quantitation (LOQ) of 1 ng/mL.
The linearity of the increase in exposure with respect to the increasing dose administered was evaluated for Cmax and AUC for R(−)-ketamine and its metabolites (norketamine, 6-hydroxynorketamine and dehydronorketamine). […] The power model was used to estimate the slope parameter and the 90% confidence intervals for the slope.

rats = assay: Anhedonic or negative affective side effects
TRD patients = settings: 15 mg; cited from earlier work
[2] = test system: phencyclidine site of the N-methyl-D-aspartate (NMDA) receptor; settings: phencyclidine site; cited from earlier work
[3] = in vivo; cited from earlier work
[4] = 5 mg R(−)-ketamine IV over 40 minutes, plasma
[5] = 150 mg R(−)-ketamine IV over 40 minutes, plasma

In the case of `NC1(c2ccccc2Cl)CCCC(O)C1=O` (stereo not shown) [6-hydroxynorketamine], the “Arithmetic mean AUC0-24h” value ([1]; 5 mg R(−)-ketamine IV) is reported as 110 ng·h/mL, the “Arithmetic mean AUC0-t” value ([1]; 5 mg R(−)-ketamine IV) is reported as 110 ng·h/mL and the “Arithmetic mean Cmax” value [1, 4] is reported as 5.98 ng/mL. For the same molecule, the “Arithmetic mean AUC0-24h” value ([1]; 150 mg R(−)-ketamine IV) was 3000 ng·h/mL, the “Arithmetic mean AUC0-t” value ([1]; 150 mg R(−)-ketamine IV) was 3000 ng·h/mL and the “Arithmetic mean Cmax” value [1, 5] was 165 ng/mL. For the same molecule, the “Metabolite/R(−)-ketamine ratio based on AUC0-24h, arithmetic mean” value ([1]; across 5 mg to 150 mg cohorts) was 2.22 and the “Metabolite/R(−)-ketamine ratio based on AUC0-t, arithmetic mean” value ([1]; across 5 mg to 150 mg cohorts) was 2.22.

For `N[C@@]1(c2ccccc2Cl)CCC[C@@H](O)C1=O` [R-hydroxynorketamine], the “Anhedonic or negative affective side effects” value (rats) was “no anhedonic or negative affective side effects”.

In the case of `CN[C@]1(c2ccccc2Cl)CCCCC1=O` [S(+)-ketamine, reference compound], the Antidepressant effect (TRD patients) is given as “robust antidepressant effect”, the “Binding affinity relative to R(−)-ketamine” value [2] is given as “approximately 4 times” and the “Side effects (hyperlocomotion, prepulse inhibition deficit, drug dependence)” value [3] is given as “induced side effects such as a hyperlocomotion, prepulse inhibition deficit, and drug dependence”.

With `NC1(c2ccccc2Cl)CCC=CC1=O` (stereo not shown) [dehydronorketamine] the “Arithmetic mean AUC0-24h” value ([1]; 5 mg R(−)-ketamine IV) was 2.5 ng·h/mL, the “Arithmetic mean AUC0-t” value ([1]; 5 mg R(−)-ketamine IV) was 1.37 ng·h/mL and the “Arithmetic mean Cmax” value [1, 4] was 0.198 ng/mL. The “Arithmetic mean AUC0-inf” value ([1]; 15 mg R(−)-ketamine IV) was 16.3 ng·h/mL, the “Fold increase in AUC0-inf” value ([1]; 15 mg to 150 mg (10-fold increase in dose)) was 35.3 fold and the “Arithmetic mean AUC0-24h” value ([1]; 150 mg R(−)-ketamine IV) was 424 ng·h/mL. The “Arithmetic mean AUC0-inf” value ([1]; 150 mg R(−)-ketamine IV) was 576 ng·h/mL, the “Arithmetic mean AUC0-t” value ([1]; 150 mg R(−)-ketamine IV) was 424 ng·h/mL and the “Arithmetic mean Cmax” value [1, 5] was 35.6 ng/mL. For the same molecule, the “Stability in the samples” value ([1]; PK samples) was “not stable in the samples”.

With `NC1(c2ccccc2Cl)CCCCC1=O` (stereo not shown) [norketamine] the “Metabolite/R(−)-ketamine ratio based on Cmax, arithmetic mean” value ([1]; across 5 mg to 150 mg cohorts) was 0.448, the half-life ([1]; both, human, plasma, intravenous) was 6.7 to 8.05 h and the Tmax ([1]; both, human, plasma, intravenous, Approximate median plasma Tmax) was ~1 h. For the same molecule, the Tmax ([1]; both, human, plasma, intravenous, Plasma Tmax range (mixed units as printed)) was 0.667 to 2 h, the AUC(0-inf) ([1]; both, human, plasma, 5 mg) was 79.1 ng·h/mL and the Cmax ([1]; both, human, plasma, 5 mg) was 11.4 ng/mL. The AUC(0-t) ([1]; both, human, plasma, 5 mg, Arithmetic mean AUC0-24h, 5 mg R(−)-ketamine IV) was 79.6 ng·h/mL, the AUC(0-t) ([1]; both, human, plasma, 5 mg, Arithmetic mean AUC0-t, 5 mg R(−)-ketamine IV) was 78 ng·h/mL and the AUC(0-inf) ([1]; both, human, plasma, 150 mg) was 3530 ng·h/mL. For the same molecule, the Cmax ([1]; both, human, plasma, 150 mg) was 360 ng/mL, the AUC(0-t) ([1]; both, human, plasma, 150 mg, Arithmetic mean AUC0-24h, 150 mg R(−)-ketamine IV) was 3140 ng·h/mL and the AUC(0-t) ([1]; both, human, plasma, 150 mg, Arithmetic mean AUC0-t, 150 mg R(−)-ketamine IV) was 3140 ng·h/mL.
